Data set [1] in a line: In vitro TIM gastrointestinal system, fasted vs fed. Type of data set: in vitro ADME, human. The following applies: formulated according to the invention. From the text:
As discussed, this is particularly beneficial for ADHD patients, for this initial amount of mazindol provided increases patients' mental alertness and acuity at the start of their day (e.g., driving to work, starting school).

For data set [2] the following is noted: clinical pharmacokinetic studies; cited from earlier work.
The conditions of data set [3]: cited from earlier work.
Data set [4] in a line: Pharmacokinetics of immediate-release mazindol after oral administration. Type of data set: in vivo, human. Conditions: immediate release formulation; from half-life. On the procedure:
In U.S. Pat. No. 8,293,779, it is disclosed that, after single or repeated oral administration, mazindol is absorbed with a time to maximum concentrations (Tmax) of 2-4 hours.
Such immediate release compositions thus require twice daily administration, which limits compliance in the special case of children of school age, as the second administration is often requested to be done at midday, i.e. during school time. Even given the fact that the immediate release tablet undergoes complete in vitro dissolution within 1 hour, the time to maximum concentrations (Tmax) occurs at 3-4 hours after drug administration in healthy volunteers (Kim 2009). Rapid initial absorption will allow the earlier achievement of adequate systemic exposure to achieve desired efficacy (e.g., administer early and have onset of efficacy 1-2 hours later, when patient is at school or work).

For data set [5] the following is noted: cited from earlier work. The source holds these as a separate data set.
The conditions of data set [6]: animal toxicology studies; cited from earlier work.

`OC1(c2ccc(Cl)cc2)c2ccccc2C2=NCCN21` (centres unmarked) [mazindol, 5-(4-chlorophenyl)-2,5-dihydro-3H-imadazo[2,1-a]isoindol-5-ol]: the “Tmax in the fed state compared to the fasted state” value in data set [1] is recorded as “delayed, compared to the fasted state, by one hour or more”. Further, the “absorption in the colon” value in data set [2] is “not likely to be absorbed in the colon”. The hydrolytic stability result in data set [3] (moderate temperatures, water / neutral and alkaline aqueous solutions, human plasma) is “undergoes hydrolysis at moderate temperatures with minimal amount of water”. Moreover, in data set [3] (most soluble at stomach pH, least in the colon), the “solubility as function of pH” value is “decreases with increasing pH”. For the same molecule, the “time to reach steady-state concentrations” value in data set [4] was in the range of 30 to 55 h. Also, the “dose dependence of pharmacokinetics” value in data set [5] (doses between 1 mg/day and 4 mg/day, immediate-release formulations) was “linear (independent of the dose)”. Moreover, the “time to maximum concentrations (Tmax)” value in data set [5] (single or repeated oral administration, U.S. Pat. No. 8,293,779) is 2 to 4 h. In data set [6], the carcinogenic effect entry was “no carcinogenic effect”, the mutagenic effect entry is reported as “no mutagenic effect”, the toxic potential entry is listed as “very low” and the “toxicology effect in reproduction” value was “no toxicology effect in reproduction”.

The record behind these values is patent publication US11207271B2, “Mazindol IR/SR multilayer tablet and its use for the treatment of attention deficit/hyperactivity disorder (ADHD)” (NLS-1 Pharma AG, priority 2016, dated 2021).
